This is an account of results in ChEMBL document CHEMBL1135809 (J Med Chem, 2002).

As usually defined, the IC50 is the concentration needed to halve the response being measured. A low value points to greater potency.

Assay [1] addresses Sigma non-opioid intracellular receptor 1 (Homo sapiens) (UniProt Q99720). The assay is described as follows: Selectivity ratio (Sigma1/Sigma2).
In assay [2] the target is T1, Alpha-2A adrenergic receptor (Homo sapiens, UniProt P08913).
T1 sequence (P08913 whole entry): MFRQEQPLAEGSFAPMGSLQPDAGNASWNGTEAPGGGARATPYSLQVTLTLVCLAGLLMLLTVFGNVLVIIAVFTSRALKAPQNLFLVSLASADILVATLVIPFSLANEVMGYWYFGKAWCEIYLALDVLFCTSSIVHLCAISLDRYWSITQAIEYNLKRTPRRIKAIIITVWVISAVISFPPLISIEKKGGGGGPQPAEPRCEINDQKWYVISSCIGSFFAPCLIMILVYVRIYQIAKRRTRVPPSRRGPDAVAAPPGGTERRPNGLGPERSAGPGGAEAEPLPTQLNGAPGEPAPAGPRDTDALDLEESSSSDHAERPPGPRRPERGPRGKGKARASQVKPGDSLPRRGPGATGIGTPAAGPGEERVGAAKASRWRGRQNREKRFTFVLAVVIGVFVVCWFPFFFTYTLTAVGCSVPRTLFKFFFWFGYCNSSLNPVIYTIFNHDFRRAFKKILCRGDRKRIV
The assay can be described thus: Inhibition of idazoxane binding to noradrenaline alpha-2 receptor.

For another assay, the target named is Substance-P receptor (Homo sapiens, UniProt P25103). The assay can be described thus: Inhibition of [Sar9,Met(O2)11]-SP binding to human Tachykinin receptor 1 (NK1).
The next assay concerns the target D(1A) dopamine receptor (Mus musculus, UniProt Q61616). The assay is described as follows: Inhibition of SCH 23390 binding to Dopamine receptor D1.
Assay [3] is described as follows: The compound was tested for inhibition of noradrenaline reuptake. It counts as functional.
Assay [4] is described as follows: The compound was tested for inhibition of serotonin reuptake. The class given is functional.
In assay [5] the target is 5-hydroxytryptamine receptor 2A (Homo sapiens, UniProt P28223). The assay can be described thus: Inhibition of ketanserin binding to 5-hydroxytryptamine 2A receptor.
Assay [6] addresses Glutamate receptor ionotropic, NMDA 2C (Rattus norvegicus, UniProt Q00961). The assay is described as follows: Inhibition of MK 801 binding to NMDA, PCP receptor.
The target of assay [7] is T2, 5-hydroxytryptamine receptor 1A (Mus musculus, UniProt Q64264).
T2 sequence (Q64264 whole entry): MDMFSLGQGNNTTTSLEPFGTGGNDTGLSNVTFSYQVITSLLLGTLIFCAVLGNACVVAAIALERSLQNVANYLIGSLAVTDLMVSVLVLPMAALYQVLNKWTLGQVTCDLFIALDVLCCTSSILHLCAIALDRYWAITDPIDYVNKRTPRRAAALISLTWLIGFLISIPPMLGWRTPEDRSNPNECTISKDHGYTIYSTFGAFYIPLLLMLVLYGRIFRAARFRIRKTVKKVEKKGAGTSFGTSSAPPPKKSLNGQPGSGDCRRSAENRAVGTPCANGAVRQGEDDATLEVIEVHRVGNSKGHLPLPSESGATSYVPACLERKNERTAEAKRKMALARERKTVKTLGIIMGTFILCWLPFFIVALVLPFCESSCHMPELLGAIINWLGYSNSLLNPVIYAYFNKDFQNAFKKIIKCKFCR
The assay can be described thus: Inhibition of […] binding to 5-hydroxytryptamine 1A receptor.

Another assay deals with T3, Neuromedin-K receptor (Homo sapiens, UniProt P29371).
T3 sequence (P29371 whole entry): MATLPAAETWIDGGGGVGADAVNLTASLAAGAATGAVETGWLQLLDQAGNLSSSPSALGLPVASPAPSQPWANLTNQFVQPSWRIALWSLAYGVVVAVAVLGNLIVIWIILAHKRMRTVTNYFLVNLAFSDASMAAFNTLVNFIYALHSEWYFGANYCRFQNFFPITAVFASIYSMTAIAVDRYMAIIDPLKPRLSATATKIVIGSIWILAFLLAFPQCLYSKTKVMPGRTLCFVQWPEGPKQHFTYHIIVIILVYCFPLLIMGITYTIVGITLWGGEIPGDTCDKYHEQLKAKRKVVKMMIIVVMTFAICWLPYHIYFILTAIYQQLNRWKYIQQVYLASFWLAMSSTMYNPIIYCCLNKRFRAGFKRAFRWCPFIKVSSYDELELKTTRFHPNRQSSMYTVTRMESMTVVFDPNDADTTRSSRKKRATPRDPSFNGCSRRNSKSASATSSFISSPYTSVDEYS
The assay is described as follows: Inhibition of [125I][MePhe7]-NKB binding to human Tachykinin receptor 3 (NK3).

Another assay deals with Histamine H1 receptor (Homo sapiens, UniProt P35367). The assay is described as follows: Inhibition of mepyramine binding to Histamine H1 receptor.
Assay [8] can be described thus: Inhibition of prazosin binding to noradrenaline alpha-1 receptor.
The target of another assay is T4, Substance-K receptor (Homo sapiens, UniProt P21452).
T4 sequence (P21452 whole entry): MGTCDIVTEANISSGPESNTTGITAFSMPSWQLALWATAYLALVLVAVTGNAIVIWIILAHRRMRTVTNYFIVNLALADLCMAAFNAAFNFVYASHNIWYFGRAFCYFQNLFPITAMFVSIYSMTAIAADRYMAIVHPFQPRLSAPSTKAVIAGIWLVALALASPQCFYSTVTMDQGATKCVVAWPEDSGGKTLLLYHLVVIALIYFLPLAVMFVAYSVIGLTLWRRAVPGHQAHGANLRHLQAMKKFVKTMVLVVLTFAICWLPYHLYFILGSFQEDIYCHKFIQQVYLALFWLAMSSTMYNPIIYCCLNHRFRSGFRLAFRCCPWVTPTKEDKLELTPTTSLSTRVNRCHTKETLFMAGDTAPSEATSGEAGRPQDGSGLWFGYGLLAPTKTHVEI
The assay is described as follows: Inhibition of [125I]NKA binding to human Tachykinin receptor 2 (NK2).

The target in assay [9] is T5, 5-hydroxytryptamine receptor 3A (Homo sapiens, UniProt P46098).
T5 sequence (P46098 whole entry): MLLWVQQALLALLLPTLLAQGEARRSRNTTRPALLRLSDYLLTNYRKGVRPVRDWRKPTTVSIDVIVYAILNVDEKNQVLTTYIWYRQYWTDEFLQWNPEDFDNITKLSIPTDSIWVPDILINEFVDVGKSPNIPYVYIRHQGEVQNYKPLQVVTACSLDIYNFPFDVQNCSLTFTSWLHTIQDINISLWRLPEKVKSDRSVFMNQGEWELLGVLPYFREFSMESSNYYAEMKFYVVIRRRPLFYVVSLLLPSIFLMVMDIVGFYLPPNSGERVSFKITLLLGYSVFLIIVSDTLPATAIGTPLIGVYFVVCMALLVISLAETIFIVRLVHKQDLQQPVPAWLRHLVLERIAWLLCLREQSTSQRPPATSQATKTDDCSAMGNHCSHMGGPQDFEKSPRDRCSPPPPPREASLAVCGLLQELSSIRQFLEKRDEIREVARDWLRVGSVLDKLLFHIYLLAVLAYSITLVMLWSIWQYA
The assay can be described thus: Inhibition of GR-65630 binding to 5-hydroxytryptamine 3 receptor.

Sequence of Histamine H1 receptor (P35367 whole entry): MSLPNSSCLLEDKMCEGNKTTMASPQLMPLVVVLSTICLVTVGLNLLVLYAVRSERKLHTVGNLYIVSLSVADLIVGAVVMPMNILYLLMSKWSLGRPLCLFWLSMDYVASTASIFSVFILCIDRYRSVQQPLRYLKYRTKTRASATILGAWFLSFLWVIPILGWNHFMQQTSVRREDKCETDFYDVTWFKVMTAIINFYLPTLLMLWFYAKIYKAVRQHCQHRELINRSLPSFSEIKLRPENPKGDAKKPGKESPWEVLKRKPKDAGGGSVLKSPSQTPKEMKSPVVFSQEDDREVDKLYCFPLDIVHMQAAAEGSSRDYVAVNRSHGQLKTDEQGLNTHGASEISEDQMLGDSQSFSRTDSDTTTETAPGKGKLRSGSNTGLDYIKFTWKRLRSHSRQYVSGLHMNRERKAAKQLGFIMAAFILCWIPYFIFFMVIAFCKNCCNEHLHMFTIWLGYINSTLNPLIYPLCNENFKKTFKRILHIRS
Sequence of Sigma non-opioid intracellular receptor 1 (Homo sapiens) (Q99720 whole entry): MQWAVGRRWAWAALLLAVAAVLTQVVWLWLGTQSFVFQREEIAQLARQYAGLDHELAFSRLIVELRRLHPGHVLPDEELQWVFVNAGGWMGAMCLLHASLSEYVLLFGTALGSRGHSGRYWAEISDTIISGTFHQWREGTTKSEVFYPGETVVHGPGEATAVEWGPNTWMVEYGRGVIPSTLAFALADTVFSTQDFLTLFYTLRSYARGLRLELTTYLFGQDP
Sequence of 5-hydroxytryptamine receptor 2A (P28223 whole entry): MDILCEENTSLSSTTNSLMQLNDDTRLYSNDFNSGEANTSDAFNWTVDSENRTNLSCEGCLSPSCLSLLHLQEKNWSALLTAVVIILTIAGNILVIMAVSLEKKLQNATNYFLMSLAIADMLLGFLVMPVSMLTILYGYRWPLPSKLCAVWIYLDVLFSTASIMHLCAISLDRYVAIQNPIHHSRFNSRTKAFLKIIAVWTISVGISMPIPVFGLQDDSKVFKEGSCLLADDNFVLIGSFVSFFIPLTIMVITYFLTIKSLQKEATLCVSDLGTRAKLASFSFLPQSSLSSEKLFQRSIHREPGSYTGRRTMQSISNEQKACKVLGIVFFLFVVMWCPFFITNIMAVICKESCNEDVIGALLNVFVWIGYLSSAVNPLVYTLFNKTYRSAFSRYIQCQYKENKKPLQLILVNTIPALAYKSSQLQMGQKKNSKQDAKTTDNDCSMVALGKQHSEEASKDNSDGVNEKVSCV
Sequence of D(1A) dopamine receptor (Q61616 whole entry): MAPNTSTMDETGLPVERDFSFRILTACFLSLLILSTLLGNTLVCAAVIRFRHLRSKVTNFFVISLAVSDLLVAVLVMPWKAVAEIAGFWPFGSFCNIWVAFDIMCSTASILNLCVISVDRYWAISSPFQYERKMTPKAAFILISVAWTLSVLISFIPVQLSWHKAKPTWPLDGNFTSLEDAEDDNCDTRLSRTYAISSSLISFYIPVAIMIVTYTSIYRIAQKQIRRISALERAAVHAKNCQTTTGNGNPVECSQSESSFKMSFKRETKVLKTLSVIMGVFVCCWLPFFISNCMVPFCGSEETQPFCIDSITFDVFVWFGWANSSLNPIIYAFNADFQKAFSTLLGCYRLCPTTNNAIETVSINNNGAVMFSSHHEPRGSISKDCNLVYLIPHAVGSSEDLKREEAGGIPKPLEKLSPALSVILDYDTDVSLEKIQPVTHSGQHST
Sequence of Glutamate receptor ionotropic, NMDA 2C (Q00961 whole entry): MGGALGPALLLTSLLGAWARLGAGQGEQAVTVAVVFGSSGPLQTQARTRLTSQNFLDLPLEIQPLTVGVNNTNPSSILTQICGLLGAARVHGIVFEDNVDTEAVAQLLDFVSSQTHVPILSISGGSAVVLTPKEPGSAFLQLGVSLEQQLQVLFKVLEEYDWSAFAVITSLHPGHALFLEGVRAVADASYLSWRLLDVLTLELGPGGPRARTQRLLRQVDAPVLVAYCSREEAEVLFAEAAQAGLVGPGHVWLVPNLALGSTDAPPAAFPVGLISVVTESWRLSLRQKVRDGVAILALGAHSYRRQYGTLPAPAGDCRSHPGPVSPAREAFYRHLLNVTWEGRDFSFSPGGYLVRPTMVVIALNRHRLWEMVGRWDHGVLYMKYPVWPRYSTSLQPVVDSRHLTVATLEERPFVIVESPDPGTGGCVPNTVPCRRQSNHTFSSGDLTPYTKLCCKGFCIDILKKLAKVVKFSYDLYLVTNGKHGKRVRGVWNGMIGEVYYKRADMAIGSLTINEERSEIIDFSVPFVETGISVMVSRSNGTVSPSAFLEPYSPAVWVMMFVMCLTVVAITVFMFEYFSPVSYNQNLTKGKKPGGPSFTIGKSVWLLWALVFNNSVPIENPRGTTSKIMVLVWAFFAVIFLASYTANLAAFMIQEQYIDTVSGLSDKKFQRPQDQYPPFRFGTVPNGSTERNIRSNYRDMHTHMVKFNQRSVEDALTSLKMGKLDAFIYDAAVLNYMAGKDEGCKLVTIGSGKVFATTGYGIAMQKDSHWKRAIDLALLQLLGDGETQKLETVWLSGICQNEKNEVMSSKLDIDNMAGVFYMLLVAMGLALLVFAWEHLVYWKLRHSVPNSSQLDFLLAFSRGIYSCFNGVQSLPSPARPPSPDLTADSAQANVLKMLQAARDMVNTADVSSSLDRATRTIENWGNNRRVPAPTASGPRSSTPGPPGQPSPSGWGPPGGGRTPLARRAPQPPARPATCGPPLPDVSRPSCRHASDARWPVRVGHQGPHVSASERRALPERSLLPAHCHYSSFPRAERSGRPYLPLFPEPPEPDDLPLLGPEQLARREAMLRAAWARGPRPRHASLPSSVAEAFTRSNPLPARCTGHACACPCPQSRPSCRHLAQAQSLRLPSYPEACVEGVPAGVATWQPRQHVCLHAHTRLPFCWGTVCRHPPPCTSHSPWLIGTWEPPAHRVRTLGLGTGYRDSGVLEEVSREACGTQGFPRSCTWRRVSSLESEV
Sequence of Substance-P receptor (P25103 whole entry): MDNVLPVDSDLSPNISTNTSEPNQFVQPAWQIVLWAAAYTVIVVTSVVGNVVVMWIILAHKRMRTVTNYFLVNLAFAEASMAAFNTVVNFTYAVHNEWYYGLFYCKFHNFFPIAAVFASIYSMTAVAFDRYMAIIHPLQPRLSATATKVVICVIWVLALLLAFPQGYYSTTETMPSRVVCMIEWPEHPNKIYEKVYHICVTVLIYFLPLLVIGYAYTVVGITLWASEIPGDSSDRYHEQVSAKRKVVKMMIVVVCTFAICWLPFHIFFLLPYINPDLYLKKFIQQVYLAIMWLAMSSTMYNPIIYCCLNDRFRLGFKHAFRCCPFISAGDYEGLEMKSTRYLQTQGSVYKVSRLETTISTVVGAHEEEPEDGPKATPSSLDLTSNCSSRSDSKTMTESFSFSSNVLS

With `COC1Cc2ccccc2C2(CCN(CCCCc3ccccc3)CC2)O1` (stereo unspecified), in assay [1], the Selectivity ratio came out at 30.

`COC1OC2(CCN(Cc3ccccc3)CC2)c2ccccc21` (stereo unspecified): the IC50 in assay [2] is 6.2 µM; at Substance-P receptor, greater than 10 µM; at D(1A) dopamine receptor, greater than 10 µM; in assay [3] it was greater than 10 µM; in [4], 8 µM; in [5] it was greater than 10 µM. The IC50 in assay [6] was greater than 10 µM; in assay [7], greater than 1 µM; at Neuromedin-K receptor, greater than 10 µM; at Histamine H1 receptor, greater than 10 µM; in [8], greater than 10 µM; on Substance-K receptor, greater than 10 µM. The molecule further registered an IC50 in [9] greater than 10 µM.

`OC1Cc2ccccc2C2(CCN(CCc3ccccc3)CC2)O1` (stereo unspecified): in [1], the Selectivity ratio is 2.

As for `COC1Cc2ccccc2C2(CCN(C/C=C/c3ccccc3)CC2)O1` (stereo unspecified), in assay [1], the Selectivity ratio turned out to be 301.

Consider `OC1Cc2ccccc2C2(CCN(Cc3ccccc3)CC2)O1` (stereo unspecified), for which the Selectivity ratio in assay [1] was found to be 236.

Consider `COC1Cc2ccccc2C2(CCN(CCCc3ccccc3)CC2)O1` (stereo unspecified), for which the IC50 is 3.1 µM in [2]; greater than 10 µM at Substance-P receptor; greater than 10 µM at D(1A) dopamine receptor; 0.51 µM in [3]; 0.7 µM in assay [4]; 0.46 µM in assay [5]. Besides, the IC50 in [6] was greater than 10 µM; in assay [7] it was greater than 1 µM; on Neuromedin-K receptor, greater than 10 µM; at Histamine H1 receptor, 8 µM; in [8] it was 1.4 µM; at Substance-K receptor, greater than 10 µM. Besides, the IC50 in assay [9] was greater than 10 µM.

As to `COC1Cc2ccccc2C2(CCN(Cc3ccccc3)CC2)O1` (stereo unspecified), the half-maximal inhibitory concentration (IC50) is 3 µM in assay [2]; greater than 10 µM on Substance-P receptor; greater than 10 µM on D(1A) dopamine receptor; 6 µM in assay [4]; 6.6 µM in assay [5]; greater than 10 µM in assay [6]. Also, the IC50 in assay [7] was greater than 1 µM; at Neuromedin-K receptor it was greater than 10 µM; on Histamine H1 receptor it was greater than 10 µM; at Substance-K receptor, greater than 10 µM; in assay [9] it was greater than 10 µM.
